Data published in patent US12139498B1, “Positive allosteric modulators of the muscarinic acetylcholine receptor M4” (Vanderbilt University, priority 2023, dated 2024).

Legend:
Human M4 = target: T1, Human M4 (Homo sapiens, UniProt P08173); experiment: M4 cell-based functional assay (calcium mobilization); set-up: expressed in transfected cells
T1 sequence (P08173 1-479): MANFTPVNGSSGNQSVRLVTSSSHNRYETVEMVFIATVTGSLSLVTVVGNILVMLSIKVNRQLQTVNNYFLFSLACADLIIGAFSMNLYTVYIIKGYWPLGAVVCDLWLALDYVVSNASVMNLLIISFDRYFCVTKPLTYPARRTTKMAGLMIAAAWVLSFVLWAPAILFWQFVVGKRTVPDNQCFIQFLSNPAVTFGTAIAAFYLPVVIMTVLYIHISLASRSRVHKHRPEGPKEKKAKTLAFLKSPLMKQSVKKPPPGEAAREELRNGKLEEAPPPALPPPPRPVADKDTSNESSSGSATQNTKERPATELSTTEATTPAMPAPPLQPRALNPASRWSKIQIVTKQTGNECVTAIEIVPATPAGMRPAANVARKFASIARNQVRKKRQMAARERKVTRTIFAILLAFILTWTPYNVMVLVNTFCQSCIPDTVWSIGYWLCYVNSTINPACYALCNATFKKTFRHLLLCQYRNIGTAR
Summary of the method: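 CHO-K1 cells stably co-expressing hM4 and chimeric Gqi5, loaded with Fluo-4-AM (1.15 μM final, 45 min, 37° C). Compound added ~140 s before EC20 then EC80 acetylcholine; calcium flux by kinetic fluorescence (ex 480/em 530 nm), expressed as fold over basal and normalized to maximal ACh response (1 mM).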

Dog intrinsic clearance = format: in vitro ADME
Procedure: (§1) Compound 70 was tested in several in in vitro assays to investigate both metabolism and pharmacokinetics. These assays may be performed according to known methods as generally described in the following references: Conde-Ceide et al. ACS Med. Chem. Lett. 2015, 6, 716-720; Morris et al. J. Med. Chem. 2014, 57, 10192-10197; and Bubser et al. ACS Chem. Neurosci. 2014, 5, 920-942.

[1] = In vivo pharmacokinetics in rat
Procedure: Compound 70 was tested in several in vivo assays and the pharmacokinetic parameters listed in the following table may be determined from pharmacokinetic studies in rat, dog, or cynomolgus monkey, according to known methods as generally described in the following references: Garrison et al. J. Med. Chem. 2022, 65, 6273-6286; Felts et al. J. Med. Chem 2017, 60, 5072-5085; and Yu et al. J. Med. Chem. 2021, 64, 4709-4729.

Rat intrinsic clearance = format: in vitro ADME
Procedure: as §1

male Sprague-Dawley rats = experiment: Amphetamine-induced hyperlocomotion in rats; details: 100 mg/kg i.p., amphetamine 0.25 mg/kg s.c., p<0.001
[2] = Fraction unbound in rat brain; format: in vitro ADME; details: read-out: Rat Fu (brain)
Procedure: as §1

MDCK-MDR1 = MDCK-MDR1 permeability / efflux; format: in vitro ADME; details: efflux ratio
Procedure: as §1

[3] = MDCK-MDR1 permeability / efflux; format: in vitro ADME; details: dog, MDCK-MDR1
Procedure: as §1

[4] = Fraction unbound in human plasma; format: in vitro ADME; details: read-out: Human Fu (plasma)
Procedure: as §1

Cc1c(N2CCc3nc(C4(F)CC4)sc3C2)nc2nn(C)c(=O)n2c1C [Compound 70, 7-(2-(1-fluorocyclopropyl)-6,7-dihydrothiazolo[5,4-c]pyridin-5(4H)-yl)-2,5,6-trimethyl-[1,2,4]triazolo[4,3-a]pyrimidin-3(2H)-one] showed an Emax at 30 µM (Human M4; % ACh maximum at 30 μM) of 77%, an EC50 (Human M4; CHO-K1 hM4-Gqi5 cells, calcium flux, increase in EC20 acetylcholine response) of 4 nM and a CLint scaled (Dog intrinsic clearance) of 17 mL/min/kg. The Kp ([1]; brain / plasma) was 1.4, the Kp uu ([1]; brain / plasma, unbound) was 0.3 and the “Rat oral F (3 mg/kg)” value ([1]; oral 3 mg/kg) was over 100%. For the same molecule, the clearance ([1]; plasma, read-out: Rat CLp) was 4.3 mL/min/kg, the half-life ([1]; plasma, read-out: Rat Elim. t1/2 (converted)) was 3.1 h and the Vd ([1]; plasma, read-out: Rat Vss) was 0.7 L/kg. For the same molecule, the CLint scaled (Rat intrinsic clearance) was 36 mL/min/kg, the “percent reversal of amphetamine-induced hyperlocomotion” value (male Sprague-Dawley rats) was 61.1% and the fraction unbound [2] was 0.06. The “MDCK-MDR1 ER” value (MDCK-MDR1) was 0.9 (Papp A→ B:, the Papp A→B [3] was 36.7 ×10⁻⁶ cm/s and the fraction unbound [4] was 0.217.
